In paper PMC11121064 (International Journal of Molecular Sciences, 2024):
Like-named read-outs stand apart in the source and are kept apart here.

Experiments:
[1] = test system: human BJ fibroblast cell line; assay: MTT reduction assay, BJ fibroblasts; type: cell-based; conditions: 72 h
Experimental: (§1) The cytotoxic activity was measured against the melanoma A375 tumor cell line (ECACC) and the human BJ fibroblast cell line (ATCC) using an MTT reduction assay. The selectivity index (SI) was calculated using the following formula: SI = IC50 (BJ)/ IC50 (A375).
The A375 cell line was purchased from the European Collection of Authenticated Cell Cultures (ECACC, Salisbury, UK) and the BJ human fibroblast cell line from the American Type Culture Collection (ATCC, Manassas, VA, USA). All the cell lines were grown as a monolayer in standard conditions: 37 °C, 100% humidity, under an atmosphere of 5% CO2. The A375 cells were cultured in Dulbecco’s Modified Eagle Medium supplemented with 15% fetal calf serum and 50 IU/mL penicillin/streptomycin. The BJ cell line was grown in EMEM with EBSS, NEAA and sodium pyruvate with L-Glutamine supplemented, 10% fetal bovine serum and 50 IU/mL penicillin/streptomycin.
(§2) Next, the cells were seeded in 96-well plates at a density of 5000 cells per well and incubated overnight to reach the logarithmic growth phase. […] After 72 h, 10 µL of MTT solution (5 g/L) was added into each well and incubated for an additional four hours. Subsequently, the medium was removed, and 100 µL of dimethyl sulfoxide (DMSO) was added into each well. The absorbance was then measured at 570 nm using a SPECTROstar Nano microplate reader (BMG Biotech Inc., Cary, NC, USA)/Tecan Spark 10M. The mean value from three independent BJ and A375 cell cultures was taken to calculate the cell viability, expressed as a percentage of the control values, i.e., untreated cells assumed as 100%.

[2] = test system: melanoma A375 tumor cell line; assay: MTT reduction assay, A375 melanoma cells; type: cell-based, human
Experimental: as §1
The A375 cell line was purchased from the European Collection of Authenticated Cell Cultures (ECACC, Salisbury, UK) and the BJ human fibroblast cell line from the American Type Culture Collection (ATCC, Manassas, VA, USA). All the cell lines were grown as a monolayer in standard conditions: 37 °C, 100% humidity, under an atmosphere of 5% CO2. […] The BJ cell line was grown in EMEM with EBSS, NEAA and sodium pyruvate with L-Glutamine supplemented, 10% fetal bovine serum and 50 IU/mL penicillin/streptomycin.
as §2

[3] = test system: clot formation and fibrinolysis in human citrate plasma; assay: Clot formation and fibrinolysis test (CL-test); conditions: for CLAUC overall potential for clot formation and fibrinolysis / Fmax maximum clotting / Fvo initial plasma clotting velocity / Lmax maximum lysis / Lvo initial clot fibrinolysis velocity / Sc area under the curve of stable clot formation / Sf area under the fibrinolysis curve / Sr area under the clot formation curve / Tc clot stabilization time / Tf plasma clotting time / Tl fibrinolysis time / Tt thrombin time: mean, n = 3
Experimental: Following this, the impact of the tested complex compounds and their ligands on the overall clot formation and fibrinolysis potential (CLAUC) and individual kinetic parameters was assessed using the CL-test. The analysis was performed using plasma from three different donors.
The blood samples used were residual materials from routine diagnostic studies, destined for disposal as medical waste. […] Platelet-poor plasma (PPP) and red blood cells were obtained using centrifugation at 3000× g for 10 min at room temperature using a Mikro 22R centrifuge (Hettich Zentrifugen, Tuttlingen, Germany). The plasma was used for the hemostasis tests. Before use, the centrifuged erythrocyte mass was washed three times with physiological saline solution to remove the plasma protein residues and other blood cells.
The influence of the compounds on the overall hemostasis potential was determined using the CL-test through continuous measurement of changes in optical transmittance, as described previously [53, 54]. The experiments were conducted using three-fold diluted human citrate plasma, t-PA and thrombin. […] The results are presented as means ± SD (n = 3). The curves were used to determine the kinetic parameters of clot formation, stabilization and fibrinolysis using dedicated software [51]. The following parameters of clot formation were determined: Tt—thrombin time (s), Fmax—maximum clotting (%T), Tf—plasma clotting time (s), Fvo—initial plasma clotting velocity (%T/min), Sr—area under the clot formation curve (%Txmin). The parameters of the clot stabilization phase comprised Tc—clot stabilization time (s) and Sc—area under the curve of stable clot formation (%Txmin). The parameters of fibrinolysis comprised Lmax—maximum lysis (%T), Tl—fibrinolysis time (s), Lvo—initial clot fibrinolysis velocity (%T/min) and Sf—area under the fibrinolysis curve (%Txmin). Additionally, the overall potential for clot formation and fibrinolysis, i.e., CLAUC (%Txmin), was also estimated.

[4] = test system: red blood cells (RBCs); assay: Erythrotoxicity (RBC hemolysis, lysis assay); type: cell-based, human; conditions: 24 h, 50 µmol/L and 100 µmol/L, 2% RBC suspension
Experimental: Their erythrotoxicity was also assessed. Red blood cells are model cells used in basic studies of the biocompatibility of new compounds and some medical materials. […] The amount of hemoglobin released from damaged cells was measured using a spectrophotometer.
Erythrotoxicity was assessed in a 2% erythrocyte suspension following 1 h and 24 h of incubation with the tested compounds.
(§3) The plasma was used for the hemostasis tests.
The influence of the compounds on the red blood cells (RBCs)’ membrane integrity was assessed using a lysis assay, as described previously. Briefly, the tested compounds (1 to 100 μmol/L) were incubated in a 2% RBC suspension in 0.9% NaCl at 37 °C for 24 h; solvent was used as the control. The samples were then centrifuged at 3000× g for 10 min, and the absorbance of the supernatant was determined at 550 nm (maximum absorbance for hemoglobin). The results are presented as the degree of hemolysis, i.e., the percentage of released hemoglobin. A sample containing Triton X-100 was used as the positive control (100% hemolysis), whereas a sample of saline solution represented spontaneous hemolysis of the RBCs (control).

[5] = test system: extrinsic coagulation pathway; assay: Prothrombin time (PT) and INR in human citrated plasma
Experimental: The first stage assessed the changes in plasma hemostasis occurring under the influence of the five test compounds. Plasma was incubated with the tested compounds and ligands at six different concentrations ranging from 0.5 to 100 µmol/L. The plasma was obtained from five different volunteers. To evaluate the impact on the extrinsic coagulation pathway, the prothrombin time (PT) was determined in human citrated plasma, expressed in seconds and as the international normalized ratio (INR) (Figure 6 and Figure 7).
as §3
The results are presented as means ± standard deviation (SD).

[6] = test system: intrinsic coagulation pathway; conditions: 100 µmol/L (highest concentration), mean within reference range 26.7–40.0 s
Experimental: To evaluate the intrinsic coagulation pathway, the plasma was mixed with the tested compounds at the same concentrations as in the PT analysis, and the activated partial thromboplastin time (APTT) was measured.
as §3
The PT, APTT and TT were measured using a Coag Chrom 3003 coagulometer (Bio-Ksel, Grudziadz, Poland) according to the manufacturer’s instructions, using commercially available reagents (Bio-Ksel, Grudziadz, Poland). The experiment was conducted as three independent experiments (in duplicate); distilled water or methanol was used as the control.

O=[N+]([O-])[O-].[Ag+] [AgNO3, silver(I) nitrate]
IC50 [1]: > 100 µM
effect on A375 cell viability ([2]; 72 h of exposure): dose-dependent reduction
IC50 ([2]; MTT, 72 h): 11.1 ± 0.8 µM
effect on CLAUC and kinetic parameters of clot formation and lysis ([3]; entire concentration range 0.5–100 µmol/L): no significant differences
erythrocyte hemolysis [4]: > 60%

Cc1ncc([N+](=O)[O-])n1CCO.Cc1ncc([N+](=O)[O-])n1CCO.Cc1ncc([N+](=O)[O-])n1CCO.Cc1ncc([N+](=O)[O-])n1CCO.O=S(=O)([O-])[O-].[Ag+].[Ag+] [[(MTZ)2Ag]2SO4, metronidazole silver(I) sulfate]
CLAUC overall potential for clot formation and fibrinolysis ([3]; 0.5 µmol/L): 348.3 %*min
Fmax maximum clotting ([3]; 0.5 µmol/L): 70.6%
Fvo initial plasma clotting velocity ([3]; 0.5 µmol/L): 160.0 %/min
Lmax maximum lysis ([3]; 0.5 µmol/L): 69.8%
Lvo initial clot fibrinolysis velocity ([3]; 0.5 µmol/L): 20.3 %/min
Sc area under the curve of stable clot formation ([3]; 0.5 µmol/L): 165.1 %*min
Sf area under the fibrinolysis curve ([3]; 0.5 µmol/L): 135.9 %*min
Sr area under the clot formation curve ([3]; 0.5 µmol/L): 47.3 %*min
Tc clot stabilization time ([3]; 0.5 µmol/L): 144.3 s
Tf plasma clotting time ([3]; 0.5 µmol/L): 59.1 s
Tl fibrinolysis time ([3]; 0.5 µmol/L): 196.7 s
Tt thrombin time ([3]; 0.5 µmol/L): 20.1 s
CLAUC overall potential for clot formation and fibrinolysis ([3]; 1.0 µmol/L): 417.7 %*min
Fmax maximum clotting ([3]; 1.0 µmol/L): 73.8%
Fvo initial plasma clotting velocity ([3]; 1.0 µmol/L): 181.0 %/min
Lmax maximum lysis ([3]; 1.0 µmol/L): 73.5%
Lvo initial clot fibrinolysis velocity ([3]; 1.0 µmol/L): 19.8 %/min
Sc area under the curve of stable clot formation ([3]; 1.0 µmol/L): 207.8 %*min
Sf area under the fibrinolysis curve ([3]; 1.0 µmol/L): 157.6 %*min
Sr area under the clot formation curve ([3]; 1.0 µmol/L): 52.4 %*min
Tc clot stabilization time ([3]; 1.0 µmol/L): 174.3 s
Tf plasma clotting time ([3]; 1.0 µmol/L): 61.2 s
Tl fibrinolysis time ([3]; 1.0 µmol/L): 226.3 s
Tt thrombin time ([3]; 1.0 µmol/L): 20.5 s
CLAUC overall potential for clot formation and fibrinolysis ([3]; 5.0 µmol/L): 411.1 %*min
Fmax maximum clotting ([3]; 5.0 µmol/L): 78.6%
Fvo initial plasma clotting velocity ([3]; 5.0 µmol/L): 212.3 %/min
Lmax maximum lysis ([3]; 5.0 µmol/L): 77.9%
Lvo initial clot fibrinolysis velocity ([3]; 5.0 µmol/L): 24.8 %/min
Sc area under the curve of stable clot formation ([3]; 5.0 µmol/L): 210.7 %*min
Sf area under the fibrinolysis curve ([3]; 5.0 µmol/L): 155.5 %*min
Sr area under the clot formation curve ([3]; 5.0 µmol/L): 44.8 %*min
Tc clot stabilization time ([3]; 5.0 µmol/L): 166.7 s
Tf plasma clotting time ([3]; 5.0 µmol/L): 50.2 s
Tl fibrinolysis time ([3]; 5.0 µmol/L): 204.7 s
Tt thrombin time ([3]; 5.0 µmol/L): 19.7 s
CLAUC overall potential for clot formation and fibrinolysis ([3]; 10.0 µmol/L): 406.3 %*min
Fmax maximum clotting ([3]; 10.0 µmol/L): 75.7%
Fvo initial plasma clotting velocity ([3]; 10.0 µmol/L): 178.3 %/min
Lmax maximum lysis ([3]; 10.0 µmol/L): 75.0%
Lvo initial clot fibrinolysis velocity ([3]; 10.0 µmol/L): 21.5 %/min
Sc area under the curve of stable clot formation ([3]; 10.0 µmol/L): 203.7 %*min
Sf area under the fibrinolysis curve ([3]; 10.0 µmol/L): 156.2 %*min
Sr area under the clot formation curve ([3]; 10.0 µmol/L): 46.4 %*min
Tc clot stabilization time ([3]; 10.0 µmol/L): 166.7 s
Tf plasma clotting time ([3]; 10.0 µmol/L): 55.0 s
Tl fibrinolysis time ([3]; 10.0 µmol/L): 208.3 s
Tt thrombin time ([3]; 10.0 µmol/L): 20.7 s
CLAUC overall potential for clot formation and fibrinolysis ([3]; 50.0 µmol/L): 421.1 %*min
Fmax maximum clotting ([3]; 50.0 µmol/L): 76.9%
Fvo initial plasma clotting velocity ([3]; 50.0 µmol/L): 159.6 %/min
Lmax maximum lysis ([3]; 50.0 µmol/L): 74.3%
Lvo initial clot fibrinolysis velocity ([3]; 50.0 µmol/L): 21.7 %/min
Sc area under the curve of stable clot formation ([3]; 50.0 µmol/L): 184.0 %*min
Sf area under the fibrinolysis curve ([3]; 50.0 µmol/L): 175.2 %*min
Sr area under the clot formation curve ([3]; 50.0 µmol/L): 47.5 %*min
Tc clot stabilization time ([3]; 50.0 µmol/L): 158.7 s
Tf plasma clotting time ([3]; 50.0 µmol/L): 58.4 s
Tl fibrinolysis time ([3]; 50.0 µmol/L): 200.7 s
Tt thrombin time ([3]; 50.0 µmol/L): 20.7 s
CLAUC overall potential for clot formation and fibrinolysis ([3]; 100.0 µmol/L): 390.3 %*min
Fmax maximum clotting ([3]; 100.0 µmol/L): 72.3%
Fvo initial plasma clotting velocity ([3]; 100.0 µmol/L): 159.3 %/min
Lmax maximum lysis ([3]; 100.0 µmol/L): 72.0%
Lvo initial clot fibrinolysis velocity ([3]; 100.0 µmol/L): 22.1 %/min
Sc area under the curve of stable clot formation ([3]; 100.0 µmol/L): 194.4 %*min
Sf area under the fibrinolysis curve ([3]; 100.0 µmol/L): 145.2 %*min
Sr area under the clot formation curve ([3]; 100.0 µmol/L): 50.8 %*min
Tc clot stabilization time ([3]; 100.0 µmol/L): 166.3 s
Tf plasma clotting time ([3]; 100.0 µmol/L): 62.6 s
Tl fibrinolysis time ([3]; 100.0 µmol/L): 219.7 s
Tt thrombin time ([3]; 100.0 µmol/L): 20.5 s
prolongation of PT and INR beyond the reference range ([5]; up to 100 µmol/L, reference PT 9.7–14.6 s, INR 0.8–1.2): do not cause pathological prolongation
effect on APTT ([6]; listed as metronidazole complex with Ag2SO4): significantly prolonged
effect on APTT ([6]; listed as metronidazole with Ag2SO4): statistically significant prolongation

O=S(=O)([O-])[O-].[Ag+].[Ag+] [Ag2SO4, reference compound]
effect on prothrombin time (PT) ([5]; 100 µmol/L, human citrated plasma): significantly lengthened
erythrocyte hemolysis [4]: > 60%
